The results in this text go back to the NIST ThermoML archive (doi:10.1021/acs.jced.8b00196).

The conditions of data set [1]: Crystal; DSC.
Data set [2] is described as follows: Molar enthalpy of transition or fusion. Conditions: Crystal; DSC.

Numbers after ± are expanded uncertainties.

On to `O=C(c1ccccc1)c1ccccc1` [benzophenone], for which, in data set [1], the Triple point temperature was determined as 323.4 ± 2.1 K. The “Molar enthalpy of transition or fusion” value in data set [2] turned out to be 4.21 ± 0.311 kcal/mol.
